Like-named read-outs stand apart in the source and are kept apart here.
Legend:
[1] = tested on: ATF4; test: ATF4 expression inhibition assay (ATF4 5′UTR luciferase reporter, thapsigargin-stressed); format: cell-based; settings: Homo sapiens, HEK-293T, read-out: ATF4 inhibition
Protocol: The ATF4 reporter was prepared by fusing the human full length 5′UTR of ATF4 (NCBI Accession No. BC022088.2) upstream of the firefly luciferase coding sequence lacking the initiator methionine. The fused sequence was cloned into pLenti-EF1a-C-Myc-DDK-IRES-Puro cloning vector (Origen #PS100085) using standard methods.
HEK293T cells carrying the ATF4 luciferase reporter were plated on 96-well plates (Nunc) at 10,000 cells per well. Cells were treated two days after seeding with 100 nM thapsigargin (Tg) (Sigma-Aldrich #T9033) in the presence of different concentrations of selected compounds ranging from 0.1 nM to […]. Cells without treatment or cells treated with Tg alone were used as controls. Assay plates containing cells were incubated for 3 hours at 37° C.
Luciferase reactions were performed using Luciferase Assay System (Promega #E1501) as specified by the manufacturer. Luminescence was read with an integration time of 1 s and a gain of 110 using a Cytation-5 multi-mode microplate reader (BioTek).

[2] = tested on: Chinese hamster ovary (CHO) cells; test: Protein synthesis assay (puromycin incorporation, Western blot); format: cell-based; settings: Cricetulus griseus, read-out: % Protein synthesis relative to untreated (1 μM test compound)
Protocol: Chinese hamster ovary (CHO) cells were maintained at 37° C. and 5% CO2 in Dulbecco's Modified Eagle's Media (DMEM) supplemented with 10% fetal bovine serum, 2 mM L-glutamine, 100 U/ml penicillin, and 100 μg/ml streptomycin. After reaching 80% of confluence, cells were detached and seeded on 6 well plates in complete media, allowed to recover overnight and treated for 2 hours with 1 μM of the test compound (to assess protein synthesis levels in unstressed condition), or for 2 hours with 300 nM Tg in the presence of 1 μM of the test compound (to assess the recovery of protein synthesis in a stressed condition). Cells with Tg alone were used as controls.
After the 2 hours treatments, media were replaced by adding 10 μg/ml puromycin (Sigma Aldrich #P8833) in complete media for 30 min. Media were removed and cells were lysed with SDS-PAGE lysis buffer. Lysates were transferred to 1.5 ml tubes and sonicated for 3 min and total protein amount were quantified using BCA Protein Assay Kit (Pierce). Equal amount of protein (30 μg) was loaded on SDS-PAGE gels.
A HRP-conjugated secondary antibody (Rockland) was employed to detect immune-reactive bands using enhanced chemiluminescence (ECL Western Blotting Substrate, Pierce). Quantification of protein bands was done by densitometry using ImageJ software.
The percentage levels were normalized to the media alone condition, which correspond to 100% protein synthesis. […]

[3] = HEK293T cells carrying ATF4 luciferase reporter, 100 nM thapsigargin (Tg), 3 hours at 37° C.
[4] = unstressed CHO cells (without Tg), 2 hours, 1 μM test compound, media alone = 100%

IC50 [1, 3]	IC50 ([1]; 3 h)	SMILES	activity at 1 µM [2, 4]	activity at 1 µM ([2]; CHO, 2 h)
0.01 to 0.1 µM		O=C(N[C@H]1CC[C@H](C(=O)NCC2CNc3cc(Cl)ccc3O2)CC1)C1CNc2cc(Cl)ccc2O1 (stereo partly drawn) [Compound 77, 6-chloro-N-(trans-4-(((6-chloro-3,4-dihydro-2H-benzo[b][1,4]oxazin-2-yl)methyl)carbamoyl)cyclohexyl)-3,4-dihydro-2H-benzo[b][1,4]oxazine-2-carboxamide]	76.6%	
	0.01 to 0.1 µM	O=C(N[C@H]1CC[C@H](C(=O)Nc2nc3cc(Cl)ccc3o2)CC1)c1ccc2cc(Cl)ccc2n1 [Compound 99, 6-chloro-N-(trans-4-((5-chlorobenzo[d]oxazol-2-yl)carbamoyl)cyclohexyl)quinoline-2-carboxamide]		84.8%
	0.01 to 0.1 µM	O=C(NN1CCC(C(=O)Nc2nc3cc(Cl)ccc3o2)CC1)c1ccc2cc(Cl)ccc2n1 [Compound 100, 6-chloro-N-(4-(5-chlorobenzo[d]oxazol-2-ylcarbamoyl)piperidin-1-yl)quinoline-2-carboxamide]		128%
< 0.01 µM		O=C(N[C@H]1CC[C@H](C(=O)Nc2nc3cc(Cl)ccc3s2)CC1)c1ccc2cc(Cl)ccc2n1 [Compound 118, 6-chloro-N-(trans-4-(5-chlorobenzo[d]thiazol-2-ylcarbamoyl)cyclohexyl)quinoline-2-carboxamide]	109%	
< 0.01 µM		O=C(Nc1ccc2cc(Cl)ccc2n1)C1CCN(NC(=O)[C@H]2C[C@@H](O)c3cc(Cl)ccc3O2)CC1 [Compound 124, 1-((2R,4R)-6-chloro-4-hydroxychroman-2-carboxamido)-N-(6-chloroquinolin-2-yl)piperidine-4-carboxamide]	183%	

Continued, compound first:

SMILES	IC50 [1, 3]	IC50 ([1]; 3 h)	activity at 1 µM [2, 4]	activity at 1 µM ([2]; CHO, 2 h)
O=C(COc1ccc(Cl)c(F)c1)NN1CCC(C(=O)Nc2nc3cc(Cl)ccc3o2)CC1 [Compound 97, 1-(2-(4-chloro-3-fluorophenoxy)acetamido)-N-(5-chlorobenzo[d]oxazol-2-yl)piperidine-4-carboxamide]		0.01 to 0.1 µM		71.5%
O=C(COc1ccc(Cl)c(F)c1)NN1CCC(C(=O)Nc2nc3cc(Cl)ccc3s2)CC1 [Compound 116, 1-(2-(4-chloro-3-fluorophenoxy)acetamido)-N-(5-chlorobenzo[d]thiazol-2-yl)piperidine-4-carboxamide]	0.01 to 0.1 µM		116%	
O=C(NN1CCC(C(=O)Nc2nc3cc(Cl)ccc3s2)CC1)c1ccc2cc(Cl)ccc2n1 [Compound 119, 6-chloro-N-(4-(5-chlorobenzo[d]thiazol-2-ylcarbamoyl)piperidin-1-yl)quinoline-2-carboxamide]	< 0.01 µM		118%	
O=C(CO[C@H]1C[C@@H](OC(F)(F)F)C1)N[C@H]1CC[C@H](C(=O)Nc2nc3cc(Cl)ccc3s2)CC1 [Compound 120, trans-N-(5-chlorobenzo[d]thaizol-2-yl)-4-(2-(cis-3-(trifluoromethoxy)cyclobutoxy)acetamido)cyclohexanecarboxamide]	0.01 to 0.1 µM		122%	

Reference: patent publication US20230042881A1, “MODULATORS OF INTEGRATED STRESS RESPONSE PATHWAY” (Praxis Biotech LLC, priority 2021, published 2023)
